In article PMC10458458, “Characterization of Anticancer Effects of the Analogs of DJ4, a Novel Selective Inhibitor of ROCK and MRCK Kinases” (Pharmaceuticals, 2023):

Assays:
[1] = tested on: H1299; test: MTT cytotoxicity assay, 72 h; type: cell-based; conditions: Homo sapiens, NCI-H1299, H1299 NSCLC cells, plated to confluence, read-out: IC50 (mean cytotoxic concentration, MTT)
Description: (§1) To determine whether the effects on cell viability in AML cells were related to the specific cancer subtypes, or to differences in temporal response to DJ4, we examined whether DJ4 affected the viability of various NSCLC cells over longer periods of drug exposure. MTT assays were performed on H1299, H226, A549, H522, H23, and H460 NSCLC cell lines. […] Similarly, the cell viability of MDA-MB-231 breast cancer cells was assessed by counting live/dead cell populations after a 24-h treatment with 1–10 µM concentrations of DJ4. A concentration-dependent increase in cell death from 29% (1 µM) to 47% (10 µM) was observed (Figure 2B).
(§2) The cytotoxic effect of DJ4 was studied in H1299, H226, A549, H522, H23, and H460 non-small cell lung cancer cells. The cells were seeded into 96-well plates with confluence ([…]). The cells were further treated with DMSO or DJ4 for 72 h. To study the effects of analogs, A549, A375M, and MDA-MB-231 cells were plated with low density (2000 cells/well) in a 96-well plate and grown overnight at 37 °C (with 5% CO2). Cells were treated with the analogs at the concentration of 0–10 µM for 48 h. At the end of the treatment period, cells were incubated with a tetrazolium dye MTT (3-(4,5-dimethylthiazol-2-yl)-2,5-diphenyltetrazolium bromide) reagent (Sigma) at 37 °C for 3 h to develop formazan crystals. The media was siphoned off and crystals were dissolved in DMSO and mixed gently on rocker for 5 min. Absorbance was read at 570 nm and 630 nm (background) wavelength. IC50 values were calculated from non-linear regression curve fit by using GraphPad Prism 5.0 software.

[2] = tested on: H460; test: MTT cytotoxicity assay, 72 h; type: cell-based; conditions: Homo sapiens, NCI-H460, H460 NSCLC cells, plated to confluence, read-out: IC50 (mean cytotoxic concentration, MTT)
Description: as §1, §2

[3] = tested on: H522; test: MTT cytotoxicity assay, 72 h; type: cell-based; conditions: Homo sapiens, NCI-H522, H522 NSCLC cells, plated to confluence, read-out: IC50 (mean cytotoxic concentration, MTT)
Description: as §1, §2

[4] = tested on: H226; test: MTT cytotoxicity assay, 72 h; type: cell-based; conditions: Homo sapiens, NCI-H226, H226 NSCLC cells, plated to confluence, read-out: IC50 (mean cytotoxic concentration, MTT)
Description: as §1, §2

[5] = tested on: H23; test: MTT cytotoxicity assay, 72 h; type: cell-based; conditions: Homo sapiens, NCI-H23, H23 NSCLC cells, plated to confluence, read-out: IC50 (mean cytotoxic concentration, MTT)
Description: as §1, §2

[6] = tested on: A549; test: MTT cytotoxicity assay, 72 h; type: cell-based; conditions: Homo sapiens, A549 NSCLC cells, plated to confluence, read-out: IC50 (mean cytotoxic concentration, MTT)
Description: as §1, §2

[7] = tested on: MDA-MB-231 breast cancer cells; test: Live/dead cell count (Muse); type: cell-based, human; conditions: 24 h
Description: Figure 2 DJ4 reduces cell survival and inhibits colony forming ability of the cancer cells. (A) Different NSCLC cells were plated in a 96-well plate to confluence and then treated for 72 h. Cytotoxicity was assessed by MTT assay. The error bars indicate SEM of triplicates. (B) To assess cytotoxicity of DJ4 in breast cancer cells, MDA-MB-231 cells were treated for 24 h with indicated concentrations of DJ4. Percentage of live cells were counted using Muse^TM Live/Dead reagent and analyzed by Muse^TM cell analyzer. Error bars indicate SEM. n = 2. * p < 0.05. (C) DJ4 inhibits colony forming ability of A549 cells treated for 48 h. After a 48-h treatment, cells were seeded with number of cells mentioned in the table and were allowed to grow and form colonies. At the end of 14 days, colonies were stained and counted. Percent surviving fraction was calculated. The figure is the representative of the replicates. (D) The data are summarized in the table and represent the average of three replicates. […]
MDA-MB-231 cells were treated for 24 h with 1 µM, 2.5 µM, 5 µM, and 10 µM concentrations of DJ4. […] Cell number and cell viability were analyzed using Muse^TM Cell Viability reagent and Muse^TM (Millipore, Inc. Burlington, MA, USA) cell analyzer as per the manufacturer’s instructions.

[8] = tested on: A549 lung cancer cells; test: Colony forming assay; type: cell-based, human; conditions: then 14 days treatment-free, relative to control
Description: Figure 2 DJ4 reduces cell survival and inhibits colony forming ability of the cancer cells. (A) Different NSCLC cells were plated in a 96-well plate to confluence and then treated for 72 h. Cytotoxicity was assessed by MTT assay. The error bars indicate SEM of triplicates. (B) To assess cytotoxicity of DJ4 in breast cancer cells, MDA-MB-231 cells were treated for 24 h with indicated concentrations of DJ4. Percentage of live cells were counted using Muse^TM Live/Dead reagent and analyzed by Muse^TM cell analyzer. Error bars indicate SEM. n = 2. * p < 0.05. (C) DJ4 inhibits colony forming ability of A549 cells treated for 48 h. After a 48-h treatment, cells were seeded with number of cells mentioned in the table and were allowed to grow and form colonies. At the end of 14 days, colonies were stained and counted. Percent surviving fraction was calculated. The figure is the representative of the replicates. (D) The data are summarized in the table and represent the average of three replicates. TEXT PRINTED IN THE PICTURE: (D) DJ4: Surviving Fraction after 14 days (%): 2.3 (Concentration: 2.5μM; Number of cells plated: 2000; SEM: 0.1); Surviving Fraction after 14 days (%): 0.4 (Concentration: 5μM; Number of cells plated: 4000; SEM: 0.0); Surviving Fraction after 14 days (%): 0.1 (Concentration: 10μM; Number of cells plated: 8000; SEM: 0.0)
To further determine the effects of DJ4 on cell proliferation, we performed colony forming assays in A549 lung cancer cells. Forty-eight hours after the treatment with 2.5, 5.0, and 10 µM DJ4, individual cells were re-plated at low seeding density and colony formation was monitored for 14 days. The percent surviving fraction of cells relative to control cells that formed the distinct colonies were 2.3%, 0.4%, and 0.1% at 2.5, 5.0, and 10 µM, respectively, after 14 days of growth in a treatment-free culture medium (Figure 2C,D).

## O=C1N/C(=N\CCc2ccccc2)S/C1=C/c1c[nH]c2ncccc12 [DJ4]
[1]
  IC50: 0.44 ± 0.04 µM
[2]
  IC50: 9.53 µM
[3]
  IC50: 1.69 ± 0.48 µM
[4]
  IC50: 0.67 ± 0.38 µM
[5]
  IC50: 2.91 ± 0.71 µM
[6]
  IC50: 0.98 ± 0.21 µM
[7]; MDA-MB-231, 1 µM
  cell death: 29%
[7]; MDA-MB-231, 10 µM
  cell death: 47%
[8]; A549, 2.5 µM for 48 h
  Surviving Fraction after 14 days: 2.3%
[8]; A549, 5.0 µM for 48 h
  Surviving Fraction after 14 days: 0.4%
[8]; A549, 10 µM for 48 h
  Surviving Fraction after 14 days: 0.1%
